From PubChem BioAssay AID1845207 (Molecular Pharmacology Branch, DTP, NCI, 2023)

System: NCI-H1876 tumor spheroid viability
Experiment: Anticancer human tumor NCI-H1876 cell line growth inhibition;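 note: spheroids exposed to compounds for seven days before the viability read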;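 for viability, T/C: percent of DMSO vehicle control viability so 100% = vehicle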
Conditions: spheroids with HUVEC and MSC; for IC50: curve of first compound; for viability, T/C: stronger effect = lower value
Procedure, shortened: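 Single agents and combinations were tested on spheroids built from tumor cells plus HUVEC and hMSC, at half-log dilutions starting at or near clinical Cmax, else 10 microM; final DMSO 0.25% (v/v).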

[2H]c1nc(C)nc([2H])c1-c1cc(NC[C@@H](C)c2cccc3c(C(=O)NC)ccnc23)ncn1 + Cn1nnc2c(C(N)=O)ncn2c1=O
IC50 (second compound 1 µM): > 10 µM
IC50 (second compound 3.16 µM): > 10 µM
IC50 (second compound 10 µM): > 10 µM
IC50 (second compound 31.6 µM): > 10 µM
IC50 (second compound 100 µM): > 10 µM
viability, T/C (second compound 1 µM, first compound 0.0316 µM): 98.1%
viability, T/C (second compound 1 µM, first compound 0.1 µM): 98.7%
viability, T/C (second compound 1 µM, first compound 0.316 µM): 101%
viability, T/C (second compound 1 µM, first compound 1 µM): 101%
viability, T/C (second compound 1 µM, first compound 3.16 µM): 86.8%
viability, T/C (second compound 1 µM, first compound 10 µM): 67.6%
viability, T/C (second compound 3.16 µM, first compound 0.0316 µM): 106%
viability, T/C (second compound 3.16 µM, first compound 0.1 µM): 104%
viability, T/C (second compound 3.16 µM, first compound 0.316 µM): 95.4%
viability, T/C (second compound 3.16 µM, first compound 1 µM): 106%
viability, T/C (second compound 3.16 µM, first compound 3.16 µM): 88.8%
viability, T/C (second compound 3.16 µM, first compound 10 µM): 77.2%
viability, T/C (second compound 10 µM, first compound 0.0316 µM): 104%
viability, T/C (second compound 10 µM, first compound 0.1 µM): 103%
viability, T/C (second compound 10 µM, first compound 0.316 µM): 106%
viability, T/C (second compound 10 µM, first compound 1 µM): 101%
viability, T/C (second compound 10 µM, first compound 3.16 µM): 89.3%
viability, T/C (second compound 10 µM, first compound 10 µM): 71.5%
viability, T/C (second compound 31.6 µM, first compound 0.0316 µM): 91.8%
viability, T/C (second compound 31.6 µM, first compound 0.1 µM): 55.8%
viability, T/C (second compound 31.6 µM, first compound 0.316 µM): 91.7%
viability, T/C (second compound 31.6 µM, first compound 1 µM): 95.5%
viability, T/C (second compound 31.6 µM, first compound 3.16 µM): 89.2%
viability, T/C (second compound 31.6 µM, first compound 10 µM): 50.1%
viability, T/C (second compound 100 µM, first compound 0.0316 µM): 69.5%
viability, T/C (second compound 100 µM, first compound 0.1 µM): 76.9%
viability, T/C (second compound 100 µM, first compound 0.316 µM): 70.4%
viability, T/C (second compound 100 µM, first compound 1 µM): 66.2%
viability, T/C (second compound 100 µM, first compound 3.16 µM): 65.1%
viability, T/C (second compound 100 µM, first compound 10 µM): 58.3%
